According to patent US7553849B2, “Compounds” (Active Biotech AB, priority 2004, dated 2009):

Tested on: acute experimental autoimmune encephalomyelitis (aEAE)
Test: Acute experimental autoimmune encephalomyelitis (aEAE) inhibition in mice
Assay type: in vivo
Conditions: for activity in the aEAE model (in words): mice, no dose stated; for aEAE inhibition (%): percent inhibition of clinical scores vs saline controls
[1] = SJL/N female mice, dose 0.2 mg/kg po daily at days 3 to 7 and 10 to 12
[2] = SJL/N female mice, dose 1.0 mg/kg po daily at days 3 to 7 and 10 to 12
[3] = SJL/N female mice, dose 5.0 mg/kg po daily at days 3 to 7 and 10 to 12

CN(C(=O)c1c(O)c2sccc2n(C)c1=O)c1ccccc1 [compound 12, 4,5-dihydro-N,4-dimethyl-7-hydroxy-N-phenyl-5-oxo-thieno[3,2-b]pyridine-6-carboxamide, reference compound]
aEAE inhibition (%), result in words (SJL/N female mice, dose 5.0 mg/kg po, class word defined in footnote): inactive* | activity in the aEAE model (in words): inactive

CCN(C(=O)c1c(O)c2c(C)csc2n(C)c1=O)c1ccccc1 [compound 2, 6,7-dihydro-3,7-dimethyl-N-ethyl-4-hydroxy-N-phenyl-6-oxo-thieno[2,3-b]pyridine-5-carboxamide]
aEAE inhibition (%) [1]: 66% | aEAE inhibition (%) [2]: 84%

Cc1csc2c1c(O)c(C(=O)N(C)c1cccnc1)c(=O)n2C [compound 13, 6,7-dihydro-4-hydroxy-N-(3-pyridyl)-N,3,7-trimethyl-6-oxo-thieno[2,3-b]pyridine-5-carboxamide, reference compound]
aEAE inhibition (%) [3]: 46% | activity in the aEAE model (in words): poorly active

COc1ccc(N(C)C(=O)c2c(O)c3c(C)csc3n(C)c2=O)cc1 [compound 6, 6,7-dihydro-4-hydroxy-N-(4-methoxyphenyl)-N,3,7-trimethyl-6-oxo-thieno[2,3-b]pyridine-5-carboxamide]
aEAE inhibition (%) [1]: 92%

CN(C(=O)c1c(O)c2ccsc2n(C)c1=O)c1ccccc1 [compound 11, 6,7-dihydro-N,7-dimethyl-4-hydroxy-N-phenyl-6-oxo-thieno[2,3-b]pyridine-5-carboxamide]
aEAE inhibition (%) [2]: 53%

CCc1csc2c1c(O)c(C(=O)N(C)c1ccccc1)c(=O)n2C [compound 3, 6,7-dihydro-N,7-dimethyl-3-ethyl-4-hydroxy-N-phenyl-6-oxo-thieno[2,3-b]pyridine-5-carboxamide]
aEAE inhibition (%) [1]: 84% | aEAE inhibition (%) [2]: 100%

Cc1scc2c1c(O)c(C(=O)N(C)c1ccccc1)c(=O)n2C [compound 10, 4,5-dihydro-7-hydroxy-N-phenyl-N,1,4-trimethyl-5-oxo-2-thia-4-aza-indene-6-carboxamide]
aEAE inhibition (%) [2]: 78% | aEAE inhibition (%) [3]: 95%

O=C(Nc1cccnc1)c1c(O)c2ccsc2[nH]c1=O [6,7-dihydro-4-hydroxy-N-(3-pyridyl)-6-oxo-thieno[2,3-b]pyridine-5-carboxamide, reference compound]
activity in the aEAE model (in words): inactive

Cc1csc2c1c(O)c(C(=O)N(C)c1ccccc1)c(=O)n2C [Compound #1, 6,7-dihydro-4-hydroxy-N-phenyl-N,3,7-trimethyl-6-oxo-thieno[2,3-b]pyridine-5-carboxamide]
aEAE inhibition (%) [1]: 85% | aEAE inhibition (%) [2]: 99%
